Assay results as given in US20220187282A1, “CARDIOMYOCYTE PROLIFERATION” (The Council of the Queensland Institute of Medical Research, priority 2019, published 2022).
Where two headings read alike, the source gives them in different places.

Experiments:
Assay type in all cases: biochemical
kinases [1] = target: T1, kinases (Homo sapiens, UniProt P52564)
T1 sequence (P52564 1-334): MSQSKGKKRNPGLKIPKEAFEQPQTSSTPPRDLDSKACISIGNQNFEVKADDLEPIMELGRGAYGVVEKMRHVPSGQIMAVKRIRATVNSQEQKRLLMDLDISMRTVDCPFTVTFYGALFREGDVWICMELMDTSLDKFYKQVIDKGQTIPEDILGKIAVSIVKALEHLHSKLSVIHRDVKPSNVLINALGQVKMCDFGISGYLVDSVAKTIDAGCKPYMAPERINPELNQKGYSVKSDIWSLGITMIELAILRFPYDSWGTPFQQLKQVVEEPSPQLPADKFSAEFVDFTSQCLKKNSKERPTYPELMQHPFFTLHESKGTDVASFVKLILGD

kinases [2] = target: kinases (Homo sapiens, UniProt P11309); details: PIM1 FRET-Z-Lyte SP; Test Conc(μM):ATP Conc(μM) 1:400
kinases [3] = target: kinases (Homo sapiens, UniProt P45985); details: MAP2K4 (MEK4) FRET-Lantha SP; Test Conc(μM) 1
kinases (Homo sapiens, UniProt P45985), sequence (P45985 whole entry): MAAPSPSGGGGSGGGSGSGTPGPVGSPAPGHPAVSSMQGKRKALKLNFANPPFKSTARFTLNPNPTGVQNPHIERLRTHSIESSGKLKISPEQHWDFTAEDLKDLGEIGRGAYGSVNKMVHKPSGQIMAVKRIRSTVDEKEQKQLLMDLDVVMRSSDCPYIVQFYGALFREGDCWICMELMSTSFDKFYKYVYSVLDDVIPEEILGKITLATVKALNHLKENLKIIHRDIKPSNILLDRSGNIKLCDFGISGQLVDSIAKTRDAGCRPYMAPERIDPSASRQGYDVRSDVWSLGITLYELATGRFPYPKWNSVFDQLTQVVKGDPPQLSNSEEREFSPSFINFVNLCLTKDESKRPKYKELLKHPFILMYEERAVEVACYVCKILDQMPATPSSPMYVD

kinases [4] = target: kinases (Homo sapiens, UniProt O15146); details: MUSK *Mn* FRET-Z-Lyte SP; Test Conc(μM):ATP Conc(μM) 1:50
kinases (Homo sapiens, UniProt O15146), sequence (O15146 24-869): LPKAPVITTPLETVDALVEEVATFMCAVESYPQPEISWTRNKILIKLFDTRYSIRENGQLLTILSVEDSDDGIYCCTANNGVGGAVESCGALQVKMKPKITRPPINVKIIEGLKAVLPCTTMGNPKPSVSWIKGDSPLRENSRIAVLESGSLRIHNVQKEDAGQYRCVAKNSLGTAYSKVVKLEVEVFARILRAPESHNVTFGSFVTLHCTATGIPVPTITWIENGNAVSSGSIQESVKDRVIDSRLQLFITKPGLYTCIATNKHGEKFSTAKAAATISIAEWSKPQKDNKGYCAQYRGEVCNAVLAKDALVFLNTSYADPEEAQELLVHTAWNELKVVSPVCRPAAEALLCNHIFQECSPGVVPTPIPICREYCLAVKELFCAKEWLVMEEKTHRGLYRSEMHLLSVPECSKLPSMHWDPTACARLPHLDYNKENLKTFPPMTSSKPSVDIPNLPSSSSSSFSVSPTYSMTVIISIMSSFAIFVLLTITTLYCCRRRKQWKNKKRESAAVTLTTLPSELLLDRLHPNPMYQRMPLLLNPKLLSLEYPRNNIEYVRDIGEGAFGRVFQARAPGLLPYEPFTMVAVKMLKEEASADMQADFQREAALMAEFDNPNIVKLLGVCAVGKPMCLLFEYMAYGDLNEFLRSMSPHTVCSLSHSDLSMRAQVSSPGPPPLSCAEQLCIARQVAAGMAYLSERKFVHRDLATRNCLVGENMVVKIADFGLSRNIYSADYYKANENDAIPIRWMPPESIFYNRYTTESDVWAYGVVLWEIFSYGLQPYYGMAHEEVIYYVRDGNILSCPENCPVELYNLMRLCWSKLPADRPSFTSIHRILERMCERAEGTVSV

kinases [5] = target: kinases (Homo sapiens, UniProt Q9P289); details: MST4 FRET-Z-Lyte SP; Test Conc(μM):ATP Conc(μM) 1:25
kinases [6] = target: kinases (Homo sapiens, UniProt P41279); details: MAP3K8 (COT) Cascade Z-Lyte SP; Test Conc(μM):ATP Conc(μM) 1:100
kinases [7] = target: kinases (Homo sapiens, UniProt Q13237); details: PRKG2 (PKG2) FRET-Z-Lyte SP; Test Conc(μM):ATP Conc(μM) 1:150
kinases [8] = target: kinases (Homo sapiens, UniProt P27448); details: MARK3 FRET-Z-Lyte SP; Test Conc(μM):ATP Conc(μM) 1:5
kinases [9] = target: kinases (Homo sapiens, UniProt P29597); details: TYK2 FRET-Z-Lyte SP; Test Conc(μM):ATP Conc(μM) 1:25
kinases (Homo sapiens, UniProt P29597), sequence (P29597 whole entry): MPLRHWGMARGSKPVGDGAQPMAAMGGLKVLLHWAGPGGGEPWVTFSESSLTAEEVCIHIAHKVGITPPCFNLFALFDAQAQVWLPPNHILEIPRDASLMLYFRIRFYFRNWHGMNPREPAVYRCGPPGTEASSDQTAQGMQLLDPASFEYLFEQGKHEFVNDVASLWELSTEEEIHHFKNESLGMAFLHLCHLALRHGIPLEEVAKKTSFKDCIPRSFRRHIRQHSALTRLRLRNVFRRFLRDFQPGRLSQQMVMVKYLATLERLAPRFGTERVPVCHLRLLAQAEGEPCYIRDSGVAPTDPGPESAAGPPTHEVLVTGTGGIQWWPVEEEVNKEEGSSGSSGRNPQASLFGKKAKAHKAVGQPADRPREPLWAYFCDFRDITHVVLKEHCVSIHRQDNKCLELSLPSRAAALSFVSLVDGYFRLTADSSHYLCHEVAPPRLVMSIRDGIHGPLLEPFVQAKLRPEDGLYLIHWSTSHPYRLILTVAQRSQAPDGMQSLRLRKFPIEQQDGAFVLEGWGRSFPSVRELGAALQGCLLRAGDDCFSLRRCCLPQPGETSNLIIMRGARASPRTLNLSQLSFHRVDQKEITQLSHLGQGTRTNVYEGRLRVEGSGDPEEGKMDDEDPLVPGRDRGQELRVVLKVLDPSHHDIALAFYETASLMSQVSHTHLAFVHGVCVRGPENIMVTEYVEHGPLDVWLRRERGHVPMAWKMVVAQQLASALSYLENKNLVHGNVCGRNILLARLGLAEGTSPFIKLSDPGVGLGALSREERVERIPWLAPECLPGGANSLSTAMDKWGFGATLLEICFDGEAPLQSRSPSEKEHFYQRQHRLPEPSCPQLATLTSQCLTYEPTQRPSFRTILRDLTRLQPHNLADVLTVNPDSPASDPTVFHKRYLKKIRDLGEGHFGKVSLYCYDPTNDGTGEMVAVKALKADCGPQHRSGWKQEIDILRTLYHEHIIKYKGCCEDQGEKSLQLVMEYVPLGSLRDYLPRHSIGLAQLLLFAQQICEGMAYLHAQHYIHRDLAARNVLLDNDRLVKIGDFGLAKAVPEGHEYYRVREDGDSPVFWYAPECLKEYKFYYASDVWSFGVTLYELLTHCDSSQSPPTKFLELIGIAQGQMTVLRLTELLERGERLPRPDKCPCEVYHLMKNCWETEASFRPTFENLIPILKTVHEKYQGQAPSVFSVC

kinases [10] = target: kinases (Homo sapiens, UniProt Q9H3Y6); details: SRMS (Srm) FRET-Z-Lyte SP; Test Conc(μM):ATP Conc(μM) 1:150
kinases [11] = target: kinases (Homo sapiens, UniProt Q96PF2); details: STK22B (TSSK2) FRET-Z-Lyte SP; Test Conc(μM):ATP Conc(μM) 1:5
kinases (Homo sapiens, UniProt Q96PF2), sequence (Q96PF2 whole entry): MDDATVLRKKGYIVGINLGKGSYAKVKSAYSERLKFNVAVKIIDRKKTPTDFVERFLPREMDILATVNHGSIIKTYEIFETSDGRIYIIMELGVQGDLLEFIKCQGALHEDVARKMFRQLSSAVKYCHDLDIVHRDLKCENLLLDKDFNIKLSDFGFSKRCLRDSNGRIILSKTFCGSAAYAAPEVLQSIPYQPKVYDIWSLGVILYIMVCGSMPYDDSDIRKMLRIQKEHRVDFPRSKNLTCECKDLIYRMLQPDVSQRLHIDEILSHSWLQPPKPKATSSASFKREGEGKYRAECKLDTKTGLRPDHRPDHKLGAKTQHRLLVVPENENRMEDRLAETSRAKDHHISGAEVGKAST

kinases [12] = target: kinases (Homo sapiens, UniProt Q15139); details: PRKD1 (PKC mu) Z-Lyte SP; Test Conc(μM):ATP Conc(μM) 1:10
kinases [13] = target: kinases (Homo sapiens, UniProt Q9H093); details: NUAK2 FRET-Lantha SP; Test Conc(μM) 1
kinases [14] = target: kinases (Homo sapiens, UniProt O15075); details: DCAMKL1 (DCLK1) FRET-Z-Lyte SP
kinases (Homo sapiens, UniProt O15075), sequence (O15075 whole entry): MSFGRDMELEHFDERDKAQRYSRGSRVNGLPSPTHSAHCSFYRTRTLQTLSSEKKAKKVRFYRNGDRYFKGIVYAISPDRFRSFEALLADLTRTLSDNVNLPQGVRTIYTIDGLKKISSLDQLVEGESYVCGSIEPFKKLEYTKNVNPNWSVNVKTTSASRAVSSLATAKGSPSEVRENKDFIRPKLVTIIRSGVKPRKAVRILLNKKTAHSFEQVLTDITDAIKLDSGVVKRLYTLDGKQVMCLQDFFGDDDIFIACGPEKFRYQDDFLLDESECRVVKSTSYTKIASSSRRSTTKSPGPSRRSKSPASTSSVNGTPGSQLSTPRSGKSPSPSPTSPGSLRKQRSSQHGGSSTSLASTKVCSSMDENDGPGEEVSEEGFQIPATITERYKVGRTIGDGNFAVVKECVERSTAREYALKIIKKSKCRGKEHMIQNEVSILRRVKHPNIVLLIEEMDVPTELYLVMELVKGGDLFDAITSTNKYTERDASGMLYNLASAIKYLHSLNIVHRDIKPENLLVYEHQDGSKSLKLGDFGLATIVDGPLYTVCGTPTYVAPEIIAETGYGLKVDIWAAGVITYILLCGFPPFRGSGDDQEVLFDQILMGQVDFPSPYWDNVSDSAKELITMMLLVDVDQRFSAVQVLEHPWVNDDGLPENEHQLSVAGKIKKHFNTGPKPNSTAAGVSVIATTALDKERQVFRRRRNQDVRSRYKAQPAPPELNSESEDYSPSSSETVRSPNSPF

kinases [15] = target: kinases (Homo sapiens, UniProt P43403); details: ZAP70 *Mn* FRET-Z-Lyte SP; Test Conc(μM):ATP Conc(μM) 1:5
kinases (Homo sapiens, UniProt P43403), sequence (P43403 whole entry): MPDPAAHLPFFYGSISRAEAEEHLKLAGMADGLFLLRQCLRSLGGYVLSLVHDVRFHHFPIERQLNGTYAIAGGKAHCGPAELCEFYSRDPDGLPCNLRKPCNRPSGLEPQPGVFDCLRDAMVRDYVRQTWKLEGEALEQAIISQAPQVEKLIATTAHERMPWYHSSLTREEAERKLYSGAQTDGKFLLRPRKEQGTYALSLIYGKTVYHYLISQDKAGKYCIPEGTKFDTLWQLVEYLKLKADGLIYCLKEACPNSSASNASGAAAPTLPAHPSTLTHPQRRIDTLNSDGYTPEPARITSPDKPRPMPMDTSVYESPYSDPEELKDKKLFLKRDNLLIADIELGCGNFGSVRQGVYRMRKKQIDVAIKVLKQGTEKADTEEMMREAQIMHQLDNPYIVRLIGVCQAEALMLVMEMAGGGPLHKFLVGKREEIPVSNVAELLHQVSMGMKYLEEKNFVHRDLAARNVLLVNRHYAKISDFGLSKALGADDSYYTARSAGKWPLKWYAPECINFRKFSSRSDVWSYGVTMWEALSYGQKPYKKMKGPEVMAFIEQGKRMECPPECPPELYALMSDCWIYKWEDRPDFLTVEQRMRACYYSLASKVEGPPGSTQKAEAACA

kinases [16] = target: kinases (Homo sapiens, UniProt P53779)
kinases (Homo sapiens, UniProt P53779), sequence (P53779 whole entry): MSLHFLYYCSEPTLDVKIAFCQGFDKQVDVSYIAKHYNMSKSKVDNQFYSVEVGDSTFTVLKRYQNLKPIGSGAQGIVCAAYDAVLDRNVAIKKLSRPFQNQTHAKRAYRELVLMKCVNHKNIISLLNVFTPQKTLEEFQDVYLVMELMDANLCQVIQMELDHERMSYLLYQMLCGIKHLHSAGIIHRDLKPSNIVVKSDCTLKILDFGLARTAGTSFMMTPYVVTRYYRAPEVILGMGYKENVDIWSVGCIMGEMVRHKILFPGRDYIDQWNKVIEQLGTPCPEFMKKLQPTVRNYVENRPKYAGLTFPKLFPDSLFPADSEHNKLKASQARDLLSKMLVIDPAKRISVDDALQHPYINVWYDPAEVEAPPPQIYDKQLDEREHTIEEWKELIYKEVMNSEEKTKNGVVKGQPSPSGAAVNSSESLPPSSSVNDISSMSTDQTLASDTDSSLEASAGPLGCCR

kinases [17] = target: kinases (Homo sapiens, UniProt Q96BR1); details: SGKL (SGK3) FRET-Z-Lyte SP; Test Conc(μM):ATP Conc(μM) 1:10
kinases [18] = target: kinases (Homo sapiens, UniProt Q8TD08); details: MAPK15 (ERK7) FRET-Lantha SP; Test Conc(μM) 1
kinases [19] = target: kinases (Homo sapiens, UniProt O14920); details: IKBKB (IKKbeta) FRET-Z-Lyte SP; Test Conc(μM):ATP Conc(μM) 1:5
kinases [20] = target: kinases (Homo sapiens, UniProt P07947); details: YES1 FRET-Z-Lyte SP; Test Conc(μM):ATP Conc(μM) 1:25
kinases [21] = target: kinases (Homo sapiens, UniProt P49674); details: CSNK1E (CK1 epsilon) Z-Lyte SP; Test Conc(μM):ATP Conc(μM) 1:5
kinases (Homo sapiens, UniProt P49674), sequence (P49674 whole entry): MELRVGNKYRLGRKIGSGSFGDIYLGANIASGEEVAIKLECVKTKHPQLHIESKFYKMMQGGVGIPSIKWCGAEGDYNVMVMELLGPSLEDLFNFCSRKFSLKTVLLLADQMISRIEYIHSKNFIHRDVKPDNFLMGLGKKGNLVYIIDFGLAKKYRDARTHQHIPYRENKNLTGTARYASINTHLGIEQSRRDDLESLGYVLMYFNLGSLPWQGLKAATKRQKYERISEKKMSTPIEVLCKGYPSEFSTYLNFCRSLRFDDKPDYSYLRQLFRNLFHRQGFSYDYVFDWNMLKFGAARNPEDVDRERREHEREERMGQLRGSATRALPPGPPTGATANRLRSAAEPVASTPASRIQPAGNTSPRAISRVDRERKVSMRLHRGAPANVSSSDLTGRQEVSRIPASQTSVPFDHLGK

kinases [22] = target: kinases (Homo sapiens, UniProt P17252); details: PRKCA (PKC alpha) Z-Lyte SP; Test Conc(μM):ATP Conc(μM) 1:25
kinases [23] = target: kinases (Homo sapiens, UniProt O75385); details: ULK1 FRET-Lantha SP; Test Conc(μM) 1
kinases [24] = target: kinases (Homo sapiens, UniProt P11362); details: FGFR1 *Mn* FRET-Z-Lyte SP; Test Conc(μM):ATP Conc(μM) 1:25
kinases [25] = target: kinases (Homo sapiens, UniProt P29317); details: EPHA2 FRET-Z-Lyte SP; Test Conc(μM):ATP Conc(μM) 1:75
[26] = MAP2K6 (MKK6) FRET-Lantha SP, Test Conc(μM) 1
[27] = MAP2K6 (MKK6)Cascade Z-Lyte SP, Test Conc(μM):ATP Conc(μM) 1:100
[28] = MAPK10 (JNK3) FRET-Lantha SP, Test Conc(μM) 1
[29] = MAPK10 (JNK3)Cascade Z-Lyte SP, Test Conc(μM):ATP Conc(μM) 1:100

Row | Compound | Mean Inhib (%) (kinases [1]; [26]) | Mean Inhib (%) (kinases [1]; [27]) | Mean Inhib (%) (kinases [2]) | Mean Inhib (%) (kinases [3]) | Mean Inhib (%) (kinases [4]) | Mean Inhib (%) (kinases [5]) | Mean Inhib (%) (kinases [6]) | Mean Inhib (%) (kinases [7]) | Mean Inhib (%) (kinases [8]) | Mean Inhib (%) (kinases [9]) | Mean Inhib (%) (kinases [10]) | Mean Inhib (%) (kinases [11]) | Mean Inhib (%) (kinases [12]) | Mean Inhib (%) (kinases [13]) | Mean Inhib (%) (kinases [15]) | Mean Inhib (%) (kinases [16]; [28]) | Mean Inhib (%) (kinases [16]; [29]) | Mean Inhib (%) (kinases [17]) | Mean Inhib (%) (kinases [18]) | Mean Inhib (%) (kinases [19]) | also measured
1 | Cc1ccc(NC(=O)c2ccnc(N3CCOCC3)c2)cc1Nc1ccnc(N2CC(C)OC(C)C2)n1 (stereo not drawn) [compound 3] | −4.9% | 21.3% | 7.8% | −9.5% | 19.5% | 16.7% | 6.1% | 2.4% | 8.9% | 6.0% | 6.2% | 1.2% | 6.5% | 14.1% | 8.1% | −0.2% | 10.6% | 13.3% | 0.8% | 0.6% | Mean Inhib (%) (kinases [14]; Test Conc(μM):ATP Conc(μM) 1:300): 31.0%; Mean Inhib (%) (kinases [20]): 5.8%; Mean Inhib (%) (kinases [21]): 5.8%; Mean Inhib (%) (kinases [22]): 23.3%; Mean Inhib (%) (kinases [23]): 1.6%; Mean Inhib (%) (kinases [24]): 6.5%; Mean Inhib (%) (kinases [25]): 10.8%
2 | Cc1cc(Oc2ccnc(Nc3ccc(S(N)(=O)=O)cc3)c2)c(-c2ccccn2)nc1C [compound 65] | 2.3% | −5.7% | 3.8% | 14.1% | 17.2% | −9.9% | 21.2% | 0.2% | 4.7% | 8.4% | 1.5% | −0.9% | 11.3% | 9.4% | 0.0% | 5.5% | 1.1% | 4.7% | 1.5% | −2.5% | Mean Inhib (%) (kinases [14]; Test Conc(μM):ATP Conc(μM) 0.25): 11.8%; Mean Inhib (%) (kinases [20]): 56.6%; Mean Inhib (%) (kinases [21]): 2.8%; Mean Inhib (%) (kinases [22]): −2.0%; Mean Inhib (%) (kinases [23]): 0.1%; Mean Inhib (%) (kinases [24]): 4.3%; Mean Inhib (%) (kinases [25]): 30.7%
